In ChEMBL document CHEMBL1201862, “PubChem BioAssay data set” (2004):
Calls of active or inactive are those of the source.

Experiments:
[1] = biological target: T1, E3 ubiquitin-protein ligase XIAP (Homo sapiens, UniProt P98170); experiment: Counter Screen using XIAP-Bir3 for Chemical Antagonists of Bir1/2 domains of IAP-family anti-apoptotic proteins. [Related pubchem assays (depositor defined):AID1018, AID1449, AID1514, AID1638, AID1749, AID1750, AID488957, AID488963]
[2] = biological target: T1, E3 ubiquitin-protein ligase XIAP; experiment: small molecules displacing peptide from XIAP – biochemical, IAP family, fluorescence polarization (AID 1018); format: functional
[3] = antiviral protection against BTV-induced cell death – arbovirus, BSR cells, confirmation (AID 1250); format: functional;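 also: protection from viral cytopathic effect measured as cell viability by ATP luminescence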
[4] = biological target: T2, Calpain-2 catalytic subunit (Sus scrofa, UniProt P43367); experiment: m-calpain protease blockers, concentration series – biochemical, fluorogenic peptide substrate, dose response (AID 1420); format: functional
T2 sequence (P43367 whole entry): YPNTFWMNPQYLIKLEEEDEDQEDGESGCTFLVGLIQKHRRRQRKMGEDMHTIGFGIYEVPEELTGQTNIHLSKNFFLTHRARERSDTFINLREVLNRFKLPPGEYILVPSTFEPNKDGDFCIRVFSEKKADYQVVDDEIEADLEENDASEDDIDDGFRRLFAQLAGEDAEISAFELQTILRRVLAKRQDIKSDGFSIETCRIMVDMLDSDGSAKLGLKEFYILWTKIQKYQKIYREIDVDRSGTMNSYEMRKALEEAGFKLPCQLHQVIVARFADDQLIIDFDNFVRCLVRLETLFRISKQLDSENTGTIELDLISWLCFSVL

[5] = Luminescence Cell-Based Dose-Confimation HTS to Identify Inhibitors of 5'UTR Stem-Loop Driven Alpha-Synuclein mRNA Translation in H4 Neuroglioblastoma Cells. [Related pubchem assays: 1827 (Project Summary), 1813 (Primary HTS)]; format: functional
[6] = biological target: T3, Bcl-2-like protein 10 (Homo sapiens, UniProt Q9HD36); experiment: Concentration-response of Bcl-B inhibitors by biochemical FP with TR3 (AID 1243); format: functional
T3 sequence (Q9HD36 whole entry): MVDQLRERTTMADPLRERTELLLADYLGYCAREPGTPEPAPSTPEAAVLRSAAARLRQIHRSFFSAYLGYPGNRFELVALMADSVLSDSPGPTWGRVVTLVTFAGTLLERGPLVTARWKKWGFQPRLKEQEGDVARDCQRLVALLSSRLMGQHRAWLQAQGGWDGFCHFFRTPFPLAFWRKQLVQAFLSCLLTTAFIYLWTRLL

[7] = tested on: HEK293; experiment: EBV LMP1 TES2 canonical NF-kB signalling blockers – cell-based, HEK293, luciferase, cherry-pick, dose response (AID 588343); format: functional; conditions: Homo sapiens
[8] = biological target: Luciferin 4-monooxygenase (Photinus pyralis, UniProt P08659); experiment: Counter Screen for Luciferase-based Assay Positives. [Related pubchem assays: 620, 618, 411 ]
Sequence of Luciferin 4-monooxygenase (P08659 whole entry): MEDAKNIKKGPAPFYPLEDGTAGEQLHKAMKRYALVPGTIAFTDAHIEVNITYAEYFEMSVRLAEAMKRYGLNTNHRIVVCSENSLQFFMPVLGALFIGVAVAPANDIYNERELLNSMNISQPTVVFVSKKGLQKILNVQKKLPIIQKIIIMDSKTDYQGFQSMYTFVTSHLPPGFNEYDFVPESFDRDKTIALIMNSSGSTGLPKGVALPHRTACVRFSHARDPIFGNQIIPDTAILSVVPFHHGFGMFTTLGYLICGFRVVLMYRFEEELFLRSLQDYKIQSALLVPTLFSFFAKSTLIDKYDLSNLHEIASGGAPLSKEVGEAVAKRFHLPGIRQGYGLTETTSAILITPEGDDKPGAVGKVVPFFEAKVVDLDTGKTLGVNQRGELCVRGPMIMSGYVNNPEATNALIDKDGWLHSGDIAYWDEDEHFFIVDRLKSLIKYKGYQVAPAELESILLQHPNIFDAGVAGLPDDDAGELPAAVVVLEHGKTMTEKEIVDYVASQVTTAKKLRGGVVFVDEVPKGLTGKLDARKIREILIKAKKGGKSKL

[9] = tested on: HT-1080; experiment: HT1080 cell viability loss – fluorescence readout (AID 620); format: functional, cell-based; conditions: Homo sapiens
[10] = biological target: Potassium voltage-gated channel subfamily KQT member 2 (Rattus norvegicus, UniProt O88943, W236L); experiment: potentiation of rat KCNQ2 current – cell-based, automated electrophysiology, mechanism study for KCNQ2 potentiator project, dose response (AID 2603); format: functional
Sequence of Potassium voltage-gated channel subfamily KQT member 2 (O88943 whole entry W236L): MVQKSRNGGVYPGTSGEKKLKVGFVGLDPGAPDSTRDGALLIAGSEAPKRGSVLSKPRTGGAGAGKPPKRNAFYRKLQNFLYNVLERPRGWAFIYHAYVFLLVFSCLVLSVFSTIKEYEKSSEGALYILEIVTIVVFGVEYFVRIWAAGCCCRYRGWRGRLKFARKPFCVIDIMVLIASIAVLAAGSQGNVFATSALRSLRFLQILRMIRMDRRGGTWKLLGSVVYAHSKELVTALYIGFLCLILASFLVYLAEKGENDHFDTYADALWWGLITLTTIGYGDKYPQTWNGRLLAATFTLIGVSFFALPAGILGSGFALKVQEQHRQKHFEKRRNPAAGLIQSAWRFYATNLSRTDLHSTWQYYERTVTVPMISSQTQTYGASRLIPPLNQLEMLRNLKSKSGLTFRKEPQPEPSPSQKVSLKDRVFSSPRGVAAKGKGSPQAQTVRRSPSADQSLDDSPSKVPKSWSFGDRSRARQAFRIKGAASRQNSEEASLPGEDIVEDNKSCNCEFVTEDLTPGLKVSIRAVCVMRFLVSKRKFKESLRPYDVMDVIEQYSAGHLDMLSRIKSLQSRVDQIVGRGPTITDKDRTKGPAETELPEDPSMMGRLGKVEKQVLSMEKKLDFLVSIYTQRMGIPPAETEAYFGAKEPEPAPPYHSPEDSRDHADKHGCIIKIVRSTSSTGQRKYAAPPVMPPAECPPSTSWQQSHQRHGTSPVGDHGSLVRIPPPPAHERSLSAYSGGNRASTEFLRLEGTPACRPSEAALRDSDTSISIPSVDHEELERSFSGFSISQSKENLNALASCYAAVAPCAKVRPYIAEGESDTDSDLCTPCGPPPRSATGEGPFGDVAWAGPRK

[11] = biological target: T4, Protein RecA (Mycobacterium tuberculosis, UniProt P9WHJ3); experiment: Fluorescence Cell-Free Homogeneous Dose Retest to Identify Inhibitors of RecA-Intein Splicing Activity. [Related pubchem assays (depositor defined):AID2097, AID2223, AID489010, AID492950]; format: functional
T4 sequence (P9WHJ3 whole entry): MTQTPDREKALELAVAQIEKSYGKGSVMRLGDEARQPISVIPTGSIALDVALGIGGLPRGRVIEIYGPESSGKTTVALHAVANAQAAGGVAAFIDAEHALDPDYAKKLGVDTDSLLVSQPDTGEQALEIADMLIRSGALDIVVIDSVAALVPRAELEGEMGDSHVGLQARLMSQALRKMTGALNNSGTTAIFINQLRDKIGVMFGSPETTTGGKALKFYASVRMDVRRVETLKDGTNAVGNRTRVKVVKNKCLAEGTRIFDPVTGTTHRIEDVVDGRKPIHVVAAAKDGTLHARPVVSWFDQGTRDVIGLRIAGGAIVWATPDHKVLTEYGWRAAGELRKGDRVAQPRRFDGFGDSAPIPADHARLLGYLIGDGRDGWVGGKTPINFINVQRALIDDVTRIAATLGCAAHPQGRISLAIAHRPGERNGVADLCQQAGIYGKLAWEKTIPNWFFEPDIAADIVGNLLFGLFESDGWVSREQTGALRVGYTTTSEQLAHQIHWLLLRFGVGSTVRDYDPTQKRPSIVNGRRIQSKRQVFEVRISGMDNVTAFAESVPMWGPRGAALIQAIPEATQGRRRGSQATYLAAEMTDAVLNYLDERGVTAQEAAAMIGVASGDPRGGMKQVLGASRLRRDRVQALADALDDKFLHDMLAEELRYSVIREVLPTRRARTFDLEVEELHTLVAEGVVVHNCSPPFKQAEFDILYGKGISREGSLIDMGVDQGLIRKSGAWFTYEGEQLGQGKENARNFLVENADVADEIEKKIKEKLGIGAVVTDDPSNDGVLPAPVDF

[12] = biological target: T5, Replicative DNA helicase DnaB (Mycobacterium tuberculosis, UniProt P9WMR3); experiment: DnaB intein splicing inhibitors, dose response, biochemical, cell-free fluorescence (AID 449749); format: functional
T5 sequence (P9WMR3 whole entry): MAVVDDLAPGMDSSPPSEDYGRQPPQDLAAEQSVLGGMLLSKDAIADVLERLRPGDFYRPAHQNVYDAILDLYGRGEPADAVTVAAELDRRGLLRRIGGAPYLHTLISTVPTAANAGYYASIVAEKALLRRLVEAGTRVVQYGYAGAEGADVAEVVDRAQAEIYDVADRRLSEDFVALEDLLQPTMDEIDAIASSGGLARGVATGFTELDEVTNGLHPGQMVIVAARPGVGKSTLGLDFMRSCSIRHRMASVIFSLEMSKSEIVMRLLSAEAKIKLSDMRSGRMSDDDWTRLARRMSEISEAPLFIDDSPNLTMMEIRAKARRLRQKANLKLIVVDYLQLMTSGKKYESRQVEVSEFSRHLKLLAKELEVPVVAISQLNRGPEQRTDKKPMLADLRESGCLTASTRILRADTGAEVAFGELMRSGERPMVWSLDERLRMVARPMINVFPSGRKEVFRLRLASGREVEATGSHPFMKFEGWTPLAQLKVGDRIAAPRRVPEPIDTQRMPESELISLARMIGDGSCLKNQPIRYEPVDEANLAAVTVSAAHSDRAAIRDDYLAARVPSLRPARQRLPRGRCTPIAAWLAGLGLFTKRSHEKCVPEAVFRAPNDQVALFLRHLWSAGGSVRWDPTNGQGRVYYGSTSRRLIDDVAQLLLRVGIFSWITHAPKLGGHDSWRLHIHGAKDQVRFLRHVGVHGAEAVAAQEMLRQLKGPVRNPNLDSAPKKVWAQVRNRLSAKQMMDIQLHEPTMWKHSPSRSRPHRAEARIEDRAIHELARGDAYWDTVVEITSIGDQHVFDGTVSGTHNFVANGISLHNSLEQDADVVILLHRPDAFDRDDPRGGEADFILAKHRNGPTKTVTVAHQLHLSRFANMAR

[13] = biological target: T6, Estrogen receptor (Homo sapiens, UniProt P03372); experiment: ERα coactivator recruitment enhancers – biochemical, TR-FRET, ERα LBD, dose response (AID 737)
T6 sequence (P03372 whole entry): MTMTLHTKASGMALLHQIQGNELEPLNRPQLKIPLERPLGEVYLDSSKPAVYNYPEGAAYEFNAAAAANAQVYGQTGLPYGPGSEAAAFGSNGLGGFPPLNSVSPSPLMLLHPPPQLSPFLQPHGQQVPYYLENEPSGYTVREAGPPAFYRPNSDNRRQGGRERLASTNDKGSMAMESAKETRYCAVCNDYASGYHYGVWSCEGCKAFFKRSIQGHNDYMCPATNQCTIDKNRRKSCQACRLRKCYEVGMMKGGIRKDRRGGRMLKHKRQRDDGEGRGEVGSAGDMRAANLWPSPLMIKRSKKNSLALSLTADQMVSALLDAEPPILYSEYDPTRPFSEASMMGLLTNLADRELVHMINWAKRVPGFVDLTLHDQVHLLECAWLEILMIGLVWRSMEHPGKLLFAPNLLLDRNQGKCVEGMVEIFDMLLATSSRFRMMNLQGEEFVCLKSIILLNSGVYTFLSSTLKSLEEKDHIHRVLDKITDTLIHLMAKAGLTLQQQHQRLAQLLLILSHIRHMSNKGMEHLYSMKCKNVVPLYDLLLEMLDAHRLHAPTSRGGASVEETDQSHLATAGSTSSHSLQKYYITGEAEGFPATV

[14] = biological target: Mucolipin-3 (Homo sapiens, UniProt Q8TDD5); experiment: Dose response cell-based high-throughput screening assay for agonists of the transient receptor potential channel ML3 (TRPML3). [Related pubchem assays: 1526, 1424, 1448 ]; format: functional
Sequence of Mucolipin-3 (Q8TDD5 whole entry): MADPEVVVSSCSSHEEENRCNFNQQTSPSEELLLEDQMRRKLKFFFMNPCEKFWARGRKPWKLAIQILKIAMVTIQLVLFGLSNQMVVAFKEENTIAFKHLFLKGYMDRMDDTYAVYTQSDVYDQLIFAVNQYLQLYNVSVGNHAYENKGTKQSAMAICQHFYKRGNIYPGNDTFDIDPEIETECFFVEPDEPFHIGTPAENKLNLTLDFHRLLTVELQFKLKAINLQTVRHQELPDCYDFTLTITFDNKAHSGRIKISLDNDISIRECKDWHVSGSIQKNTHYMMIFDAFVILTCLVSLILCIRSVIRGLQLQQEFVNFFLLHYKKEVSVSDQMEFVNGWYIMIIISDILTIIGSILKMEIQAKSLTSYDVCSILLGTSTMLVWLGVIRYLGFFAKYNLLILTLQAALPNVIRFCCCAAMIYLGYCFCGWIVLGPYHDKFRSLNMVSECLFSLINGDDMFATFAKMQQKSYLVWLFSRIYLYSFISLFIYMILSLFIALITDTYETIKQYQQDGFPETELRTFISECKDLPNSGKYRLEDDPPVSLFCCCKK

[15] = biological target: Ion channel NompC (Danio rerio, UniProt Q7T1G6); experiment: Fluorescence counterscreen assay for TRPML3 agonists: dose response cell-based high-throughput screening assay to identify agonists of the transient receptor potential channel N1 (TRPN1). [Related pubchem assays: 1526, 1424, 1448 ]; format: functional
Sequence of Ion channel NompC (Q7T1G6 whole entry): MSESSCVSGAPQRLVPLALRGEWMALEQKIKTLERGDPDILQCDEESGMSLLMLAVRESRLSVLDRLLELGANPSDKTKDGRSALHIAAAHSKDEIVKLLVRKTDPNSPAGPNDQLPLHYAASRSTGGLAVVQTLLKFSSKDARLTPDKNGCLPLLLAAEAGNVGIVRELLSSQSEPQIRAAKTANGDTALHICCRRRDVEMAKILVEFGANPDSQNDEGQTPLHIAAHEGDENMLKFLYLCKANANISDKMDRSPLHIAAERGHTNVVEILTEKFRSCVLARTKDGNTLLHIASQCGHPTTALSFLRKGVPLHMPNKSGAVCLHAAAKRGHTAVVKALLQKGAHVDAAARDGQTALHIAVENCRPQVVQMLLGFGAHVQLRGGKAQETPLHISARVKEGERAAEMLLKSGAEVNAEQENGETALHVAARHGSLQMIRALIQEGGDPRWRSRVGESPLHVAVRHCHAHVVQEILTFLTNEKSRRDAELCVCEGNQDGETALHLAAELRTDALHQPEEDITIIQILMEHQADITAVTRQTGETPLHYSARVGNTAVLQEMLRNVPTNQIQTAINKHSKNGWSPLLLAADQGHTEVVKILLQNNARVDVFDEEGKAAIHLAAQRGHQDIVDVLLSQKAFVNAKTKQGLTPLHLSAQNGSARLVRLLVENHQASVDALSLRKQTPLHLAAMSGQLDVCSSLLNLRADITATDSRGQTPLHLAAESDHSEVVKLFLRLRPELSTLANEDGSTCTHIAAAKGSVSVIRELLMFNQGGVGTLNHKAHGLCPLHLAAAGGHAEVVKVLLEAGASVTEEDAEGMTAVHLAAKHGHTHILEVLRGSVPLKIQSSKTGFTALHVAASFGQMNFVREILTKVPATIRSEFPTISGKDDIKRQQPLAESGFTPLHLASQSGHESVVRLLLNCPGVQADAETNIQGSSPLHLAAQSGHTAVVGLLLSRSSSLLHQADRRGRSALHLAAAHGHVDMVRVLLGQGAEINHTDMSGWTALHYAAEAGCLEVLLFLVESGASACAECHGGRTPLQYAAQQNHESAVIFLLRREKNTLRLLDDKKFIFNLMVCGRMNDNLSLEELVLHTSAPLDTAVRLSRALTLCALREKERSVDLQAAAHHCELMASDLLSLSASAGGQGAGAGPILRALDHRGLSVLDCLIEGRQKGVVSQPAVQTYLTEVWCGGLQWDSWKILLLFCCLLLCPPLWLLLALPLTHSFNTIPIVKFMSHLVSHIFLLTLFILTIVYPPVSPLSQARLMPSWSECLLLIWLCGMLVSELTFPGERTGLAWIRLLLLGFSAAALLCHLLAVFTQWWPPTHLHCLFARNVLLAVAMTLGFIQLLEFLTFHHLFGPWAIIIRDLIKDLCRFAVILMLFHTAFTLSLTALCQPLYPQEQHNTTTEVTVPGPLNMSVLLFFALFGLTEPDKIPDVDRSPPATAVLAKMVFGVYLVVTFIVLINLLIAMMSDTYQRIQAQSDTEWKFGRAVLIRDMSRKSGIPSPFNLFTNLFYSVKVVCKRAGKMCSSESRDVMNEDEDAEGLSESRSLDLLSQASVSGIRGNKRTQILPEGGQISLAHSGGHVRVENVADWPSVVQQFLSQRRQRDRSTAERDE

[16] = biological target: T7, Neuropeptide Y receptor type 1 (Homo sapiens, UniProt P25929); experiment: IC50 of human NPY-Y1 blockers – cell-based, dose response (AID 1277); format: functional
T7 sequence (P25929 whole entry): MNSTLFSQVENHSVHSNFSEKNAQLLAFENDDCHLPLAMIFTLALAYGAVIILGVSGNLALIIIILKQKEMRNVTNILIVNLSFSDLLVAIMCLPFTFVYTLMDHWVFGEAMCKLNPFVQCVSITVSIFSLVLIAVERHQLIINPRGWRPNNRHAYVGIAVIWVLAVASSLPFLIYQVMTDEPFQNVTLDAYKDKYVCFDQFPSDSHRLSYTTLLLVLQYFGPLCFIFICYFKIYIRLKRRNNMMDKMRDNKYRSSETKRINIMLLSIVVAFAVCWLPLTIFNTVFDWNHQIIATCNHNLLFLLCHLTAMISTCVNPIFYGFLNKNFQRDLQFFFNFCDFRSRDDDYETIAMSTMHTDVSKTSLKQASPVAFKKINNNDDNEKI

[17] = biological target: T8, Neuropeptide Y receptor type 2 (Homo sapiens, UniProt P49146); experiment: IC50 for human NPY-Y2 blockade – cell-based, counter-screen for NPY-Y1 antagonist project, dose response (AID 1278); format: functional
T8 sequence (P49146 whole entry): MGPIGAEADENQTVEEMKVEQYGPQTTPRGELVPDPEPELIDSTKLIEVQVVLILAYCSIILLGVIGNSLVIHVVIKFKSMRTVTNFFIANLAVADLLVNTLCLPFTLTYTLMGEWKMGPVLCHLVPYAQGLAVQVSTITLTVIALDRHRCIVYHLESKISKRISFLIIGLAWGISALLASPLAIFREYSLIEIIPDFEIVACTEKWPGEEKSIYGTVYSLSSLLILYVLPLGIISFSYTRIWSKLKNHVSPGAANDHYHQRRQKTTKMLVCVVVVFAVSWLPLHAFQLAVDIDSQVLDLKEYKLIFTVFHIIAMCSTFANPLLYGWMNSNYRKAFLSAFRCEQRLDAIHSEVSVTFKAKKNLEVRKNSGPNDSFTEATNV

T1 sequence (P98170 whole entry): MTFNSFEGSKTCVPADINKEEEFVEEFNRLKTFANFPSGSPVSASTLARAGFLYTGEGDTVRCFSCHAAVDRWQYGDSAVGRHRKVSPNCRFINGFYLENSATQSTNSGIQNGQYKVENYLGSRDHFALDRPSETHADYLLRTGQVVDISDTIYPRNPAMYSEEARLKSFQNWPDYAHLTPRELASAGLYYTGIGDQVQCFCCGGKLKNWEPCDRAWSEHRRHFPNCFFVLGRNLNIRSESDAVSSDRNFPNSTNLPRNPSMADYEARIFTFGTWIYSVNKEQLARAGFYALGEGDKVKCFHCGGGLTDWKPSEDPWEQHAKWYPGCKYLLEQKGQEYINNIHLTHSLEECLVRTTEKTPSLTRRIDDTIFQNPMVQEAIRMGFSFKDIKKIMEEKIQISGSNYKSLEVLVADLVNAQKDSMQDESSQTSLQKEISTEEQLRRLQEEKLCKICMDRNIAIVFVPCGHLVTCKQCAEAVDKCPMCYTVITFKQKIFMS

SMILES: C=C(C)CC1N(c2cccc(OC)c2)C(=O)C2C(C(=O)O)C3C=CC21O3 (configuration not stated)
- IC50 [1]: > 100 µM (inactive)
- IC50 [2]: > 100 µM (not active)

SMILES: COc1ccc(OC)c(N(CC(=O)N2CCN(c3cc(Cl)ccc3C)CC2)S(C)(=O)=O)c1
- IC50 [3]: 38.9 µM (active)
- IC50 [4]: 11.7 µM (not active)

SMILES: CN(C)c1nc(N)nc(CSc2nnnn2-c2ccccc2)n1
- EC50 [5]: > 195 µM (not active)

SMILES: Cc1ccc(C)n1-c1ccc(Br)cc1C(=O)O
- EC50 [6]: 3.51 µM (active)

SMILES: CC(=O)c1sc(NC(=O)C2COc3ccccc3O2)nc1C (configuration not stated)
- AC50 [7]: 2.85 µM (active)
- EC50 [8]: 3.97 µM (active)
- EC50 [9]: > 50 µM (not active)

SMILES: CC(C)(C)c1ccc(OCCC(=O)NCC(c2cccs2)N2CCOCC2)cc1 (configuration not stated)
- EC50 [10]: 1.97 µM (active)

SMILES: CCc1n[nH]c2c1C(c1cccc(OC(=O)N3CCOCC3)c1)C(C#N)=C(N)O2 (configuration not stated)
- EC50 [11]: 9.88 µM (active)
- AC50 [12]: 20.3 µM (active)
- EC50 [13]: 6.39 µM (not active)

SMILES: COc1ccc(S(=O)(=O)N2CCC(C)CC2)cc1Br
- EC50 [14]: 1.82 µM (active)
- EC50 [15]: > 29.9 µM (not active)

SMILES: Brc1ccc(-c2csc(/N=C/N3CCCC3)n2)cc1
- IC50 [16]: > 35 µM (not active)
- IC50 [17]: > 35 µM (not active)
